# Reference: article PMC4076210, “Discovery of Novel AKT Inhibitors with Enhanced Anti-Tumor Effects in Combination with the MEK Inhibitor” (PLoS ONE, 2014)
# Tested on: solid tumor cell lines
# Assay: 3-day proliferation assay (CellTiter-Glo)
# Assay type: cell-based, human
# Conditions: for IC50: Homo sapiens
# Method: Various tumor cell lines were obtained from different sources including; the American Type Cell Culture Collection, the Developmental Therapeutics Program, the National Cancer Institute, the German Resource Center for Biological Material and the European Collection of Animal Cell Cultures. Cell lines were typically grown in […] containing 10% FBS. Some cell lines were grown in media specified by the vendor. A 3-day proliferation assay using CellTiter-Glo (CTG, Promega) was performed to measure the growth inhibition by the compounds at 0–30 µM. Cell growth was determined relative to untreated (DMSO) controls. EC50's were calculated from inhibition curves using a 4- or 6-parameter fitting algorithm in the Assay Client application.
smiles,measurement,setting,value
Cn1ncc(Cl)c1-c1cc(C(=O)N[C@H](CN)Cc2cccc(F)c2)sc1Cl [GSK2110183],solid tumor cell lines with EC50<1 µM,"178 cell lines, 3 days, CTG",21%
same,IC50,"22Rv1, 22Rv1, Prostate",0.706 µM
same,IC50,"647-V, 647V, Bladder",11.5 µM
same,IC50,"786-0, 786-O, Kidney",1.64 µM
same,IC50,"A204, A204, Sarcoma",2.14 µM
same,IC50,"A549, A549, Lung",3.28 µM
same,IC50,"A673, A673, Sarcoma",19.9 µM
same,IC50,"A2780, A2780, Ovary",4.03 µM
same,IC50,"A-375, A375, Skin",8.68 µM
same,IC50,"A-427, A427, Lung",19 µM
same,IC50,"ACHN, Kidney",3.71 µM
same,IC50,"AGS, Stomach",0.964 µM
same,IC50,"BE(2)-C, BE2C, Neuroblastoma",1.47 µM
same,IC50,"BFTC-905, BFTC905, Bladder",2.64 µM
same,IC50,"BT-20, BT20, Breast",0.311 µM
same,IC50,"BXPC-3, BXPC3, Pancreas",> 30 µM
same,IC50,"C3A, Liver",1.75 µM
same,IC50,"C32TG, Skin",0.975 µM
same,IC50,"C-33-A, C-33A, Cervix",0.541 µM
same,IC50,"C-41, Cervix",15.2 µM
same,IC50,"CAL-27, CAL27, Head & Neck",8.01 µM
same,IC50,"CAL-62, CAL62, Thyroid",10.4 µM
same,IC50,"CCF-STTG1, CCFSTTG1, Brain",0.673 µM
same,IC50,"CGTH-W-1, CGTHW1, Thyroid",3.07 µM
same,IC50,"CHL-1, CHL1, Skin",3.79 µM
same,IC50,"CHP-212, CHP212, Neuroblastoma",2.32 µM
same,IC50,"COLO 205, COLO205, Colon",7.58 µM
same,IC50,"COLO 320DM, COLO320DM, Colon",1.34 µM
same,IC50,"COLO 704, COLO704, Ovary",0.339 µM
same,IC50,"COR-L23, CORL23, Lung",3.92 µM
same,IC50,"Calu-3, CALU3, Lung",3.31 µM
same,IC50,"Calu-6, CALU6, Lung",5.49 µM
same,IC50,"Caov-3, CAOV3, Ovary",6.18 µM
same,IC50,"Capan-2, Capan2, Pancreas",9.38 µM
same,IC50,"DBTRG-05MG, DBTRG05MG, Brain",4.43 µM
same,IC50,"DKMG, Brain",3.68 µM
same,IC50,"DLD-1, DLD1, Colon",8.45 µM
same,IC50,"DU-145, DU145, Prostate",6.54 µM
same,IC50,"DU-4475, DU4475, Breast",2.27 µM
same,IC50,"DoTc2-4510, DoTc24510, Cervix",2.25 µM
same,IC50,"EFM-19, EFM19, Breast",0.117 µM
same,IC50,"EKVX, Lung",5.54 µM
same,IC50,"ES2, Ovary",4.52 µM
same,IC50,"FaDu, Head & Neck",10.5 µM
same,IC50,"G-401, G401, Head & Neck",1.12 µM
same,IC50,"GCT, Sarcoma",5.89 µM
same,IC50,"H4, Brain",2.99 µM
same,IC50,"HCC70, HCC70, Breast",0.081 µM
same,IC50,"HCC1954, HCC1954, Breast",0.32 µM
same,IC50,"HCC 2998, HCC2998, Colon",2.2 µM
same,IC50,"HCT-116, HCT116, Colon",5.64 µM
same,IC50,"HMCB, Skin",4.46 µM
same,IC50,"HN5, Head & Neck",2.96 µM
same,IC50,"HOS, Sarcoma",2.46 µM
same,IC50,"HPAF-II, HPAFII, Pancreas",7.49 µM
same,IC50,"HT3, Cervix",2.66 µM
same,IC50,"HT-29, HT29, Colon",2.02 µM
same,IC50,"HT-1080, HT1080, Sarcoma",7.92 µM
same,IC50,"HUVEC, Normal Endothelial",3 µM
same,IC50,"HeLa, Cervix",6.33 µM
same,IC50,"Hep3B, Liver",0.399 µM
same,IC50,"Hs746T, Stomach",2.07 µM
same,IC50,"IGROV-1, IGROV1, Ovary",0.054 µM
same,IC50,"J82, Bladder",2.07 µM
same,IC50,"KATO III, KATOIII, Stomach",0.571 µM
same,IC50,"KHOS-240S, KHOS240S, Sarcoma",8.15 µM
same,IC50,"KM12, KM12, Colon",6.49 µM
same,IC50,"KPL-1, KPL1, Breast",3.83 µM
same,IC50,"KYSE-30, KYSE30, Oesophagus",3.44 µM
same,IC50,"LNCaP, Prostate",0.076 µM
same,IC50,"LS174T, Colon",3.47 µM
same,IC50,"LS-1034, LS1034, Colon",3.17 µM
same,IC50,"M14, Skin",4.88 µM
same,IC50,"MC-IXC, MCIXC, Neuroblastoma",1.05 µM
same,IC50,"MCF7, MCF7, Breast",0.473 µM
same,IC50,"MCF-10A, MCF10A, Normal Breast",0.644 µM
same,IC50,"MDA-MB-175-VII, MDAMB175-VII, Breast",0.189 µM
same,IC50,"MDA-MB-231, MDAMB231, Breast",13.2 µM
same,IC50,"MDA-MB-453, MDAMB453, Breast",1.17 µM
same,IC50,"MDA-MB-468, MDAMB468, Breast",0.995 µM
same,IC50,"MES-SA, MESSA, Sarcoma",0.66 µM
same,IC50,"MIA PaCa-2, MiaPaCa, Pancreas",1.71 µM
same,IC50,"NCI-H69, NCIH69, Lung",1.39 µM
same,IC50,"NCI-H82, NCIH82, Lung",29.3 µM
same,IC50,"NCI-H146, NCIH146, Lung",11.3 µM
same,IC50,"NCI-H157, NCIH157, Lung",2.03 µM
same,IC50,"NCI-H187, NCIH187, Lung",0.263 µM
same,IC50,"NCI-H209, NCI-H209, Lung",4.43 µM
same,IC50,"NCI-H226, NCIH226, Lung",6.14 µM
same,IC50,"NCI-H292, NCIH292, Lung",4.82 µM
same,IC50,"NCI-H322, NCIH322, Lung",9.34 µM
same,IC50,"NCI-H358, NCI-H358, Lung",1.93 µM
same,IC50,"NCI-H446, NCIH446, Lung",1.14 µM
same,IC50,"NCI-H460, NCIH460, Lung",3.73 µM
same,IC50,"NCI-H508, NCIH508, Lung",0.309 µM
same,IC50,"NCI-H520, NCIH520, Lung",0.935 µM
same,IC50,"NCI-H630, NCIH630, Lung",5.95 µM
same,IC50,"NCI-H661, NCIH661, Lung",5.5 µM
same,IC50,"NCI-H716, NCIH716, Colon",3.85 µM
same,IC50,"NCI-H747, NCIH747, Lung",2.05 µM
same,IC50,"NCI-H1563, NCIH1563, Lung",0.582 µM
same,IC50,"NCI-H1792, NCIH1792, Lung",4.68 µM
same,IC50,"NCI-H2030, NCIH2030, Lung",5.67 µM
same,IC50,"NCI-H2052, NCIH2052, Lung",4.75 µM
same,IC50,"NCI-H2081, NCIH2081, Lung",0.73 µM
same,IC50,"NCI-H2122, NCIH2122, Lung",2.97 µM
same,IC50,"NCI-H2170, NCI-H2170, Lung",1.56 µM
same,IC50,"NCI-H2228, NCIH2228, Lung",0.926 µM
same,IC50,"NCI-N87, NCIN87, Stomach",1.29 µM
same,IC50,"NCI/ADR-RES, NCIADRRES, Breast",12.3 µM
same,IC50,"OE19, OE19, Oesophagus",5.52 µM
same,IC50,"OE21, OE21, Oesophagus",0.256 µM
same,IC50,"OE33, OE33, Oesophagus",8.07 µM
same,IC50,"OV-90, OV90, Ovary",4.69 µM
same,IC50,"OVCAR-3, OVCAR3, Ovary",5.85 µM
same,IC50,"OVCAR-4, OVCAR4, Ovary",20 µM
same,IC50,"OVCAR-5, OVCAR5, Ovary",7.72 µM
same,IC50,"PANC-1, Panc1, Pancreas",4.42 µM
same,IC50,"PC3, Prostate",3.02 µM
same,IC50,"PL45, PL45, Pancreas",6.98 µM
same,IC50,"Panc 02.03, Panc02.03, Pancreas",14.4 µM
same,IC50,"RD, Sarcoma",11.3 µM
same,IC50,"RD-ES, RDES, Sarcoma",2.41 µM
same,IC50,"RKO, Colon",1.46 µM
same,IC50,"SAOS-2, SAOS2, Sarcoma",5.35 µM
same,IC50,"SCC12, SCC12, Head & Neck",3.85 µM
same,IC50,"SCC-9, SCC9, Head & Neck",6.58 µM
same,IC50,"SCC-13, SCC-13, Head & Neck",18.8 µM
same,IC50,"SCC-15, SCC15, Head & Neck",4.17 µM
same,IC50,"SCC-25, SCC-25, Head & Neck",4.69 µM
same,IC50,"SCLC3, Lung",0.22 µM
same,IC50,"SF-295, SF295, Brain",0.835 µM
same,IC50,"SF-539, SF539, Brain",0.891 µM
same,IC50,"SH4, Skin",> 30 µM
same,IC50,"SHP77, SHP77, Lung",5.22 µM
same,IC50,"SJRH30, SJRH30, Sarcoma",0.919 µM
same,IC50,"SK-BR-3, SKBR3, Breast",0.371 µM
same,IC50,"SK-LMS-1, SKLMS1, Sarcoma",7.98 µM
same,IC50,"SK-MEL-1, SKMEL1, Skin",2.14 µM
same,IC50,"SK-MEL-28, SKMEL28, Skin",3.23 µM
same,IC50,"SK-MES-1, SKMES-1, Lung",4.55 µM
same,IC50,"SK-N-AS, SKNAS, Neuroblastoma",7.09 µM
same,IC50,"SK-OV-3, SKOV3, Ovary",1.1 µM
same,IC50,"SK-UT-1, SKUT1, Sarcoma",0.504 µM
same,IC50,"SKNF1, Neuroblastoma",0.886 µM
same,IC50,"SN12C, Kidney",> 30 µM
same,IC50,"SNB-75, SNB75, Brain",1.47 µM
same,IC50,"SNU1, SNU1, Stomach",2.15 µM
same,IC50,"SNU-5, SNU5, Stomach",11.8 µM
same,IC50,"SNU-16, SNU16, Stomach",6.58 µM
same,IC50,"SNU-398, SNU398, Liver",27.3 µM
same,IC50,"SNU-449, SNU449, Liver",6.66 µM
same,IC50,"SW48, SW48, Colon",0.807 µM
same,IC50,"SW480, SW480, Colon",> 30 µM
same,IC50,"SW579, SW579, Thyroid",1.82 µM
same,IC50,"SW684, SW684, Sarcoma",1.04 µM
same,IC50,"SW756, SW756, Cervix",10.4 µM
same,IC50,"SW780, SW780, Bladder",8.44 µM
same,IC50,"SW872, SW872, Sarcoma",0.919 µM
same,IC50,"SW900, SW900, Lung",15.6 µM
same,IC50,"SW1088, SW1088, Brain",0.952 µM
same,IC50,"SW1417, SW1417, Colon",3.96 µM
same,IC50,"SW1783, SW1783, Brain",0.592 µM
same,IC50,"SW1990, SW1990, Pancreas",13.3 µM
same,IC50,"Skut1B, Sarcoma",0.021 µM
same,IC50,"T47D, T-47D, Breast",0.331 µM
same,IC50,"T84, Colon",8.49 µM
same,IC50,"TE 381.T, TE381T, Sarcoma",1.63 µM
same,IC50,"TK-10, TK10, Kidney",4.8 µM
same,IC50,"U20S, Sarcoma",> 30 µM
same,IC50,"U138-MG, U138MG, Brain",2.81 µM
same,IC50,"U-87 MG, U87MG, Brain",4.97 µM
same,IC50,"U-251, U251, Brain",2.43 µM
same,IC50,"UACC-62, UACC62, Skin",2.09 µM
same,IC50,"UACC-257, UACC257, Skin",5.26 µM
same,IC50,"UMUC3, UMUC3, Bladder",10 µM
same,IC50,"YAPC, Pancreas",8.3 µM
same,IC50,"ZR-75-1, ZR75-1, Breast",0.088 µM
